≈ marks a conversion by molar mass, not a printed value.
What was measured:
[1] = system: Trypanosoma brucei rhodesiense; test: Antitrypanosomal activity against Trypanosoma brucei rhodesiense STIB900 bloodstream forms after 70 hrs by Alamar blue staining-based fluorometric analysis; assay type: functional, organism-based; conditions: STIB900, 70 h
[2] = system: Plasmodium berghei; test: Antiplasmodial activity against GFP expressing Plasmodium berghei ANKA infected in NMRI mouse assessed as reduction in parasitemia at 10 mg/kg, ip administered 4 hrs, 24 hrs, 48 hrs, 72 hrs post infection for 4 days and measured 72 hrs post infection by FACS analysis relative to control; assay type: functional; parameters: scale not given: the % may be the effect or the level left
[3] = system: Plasmodium berghei; test: Antiplasmodial activity against GFP expressing Plasmodium berghei ANKA infected in NMRI mouse assessed as mouse mean survival days at 10 mg/kg, ip administered 4 hrs, 24 hrs, 48 hrs, 72 hrs post infection for 4 days and measured 72 hrs post infection by FACS analysis (reference value: 4 days); assay type: functional
[4] = system: L6; test: Cytotoxicity against rat L6 cells after 70 hrs by Alamar blue staining-based fluorometric analysis; assay type: cell-based; conditions: L6, 70 h
[5] = Growth inhibition of human MRC5 cells at 140 uM after 72 hrs by XTT assay relative to control; assay type: cell-based; conditions: read-out: GI
[6] = system: Plasmodium falciparum; test: Antimalarial activity against erythrocytic stage of Plasmodium falciparum NF54 assessed as inhibition of [3H]-hypoxanthine incorporation after 48 hrs by liquid scintillation counting analysis; assay type: functional, organism-based
[7] = Selectivity index, ratio of IC50 for rat L6 cells to IC50 for Trypanosoma brucei rhodesiense STIB900 bloodstream forms; assay type: toxicity; conditions: read-out: Ratio IC50
[8] = Selectivity index, ratio of IC50 for rat L6 cells to IC50 for erythrocytic stage of Plasmodium falciparum NF54; assay type: toxicity; conditions: read-out: Ratio IC50
[9] = system: Mycolicibacterium smegmatis; test: Antimycobacterial activity against Mycobacterium smegmatis ATCC 14468 after 72 hrs by MTT dye-based microbroth dilution assay; assay type: functional; conditions: ATCC 14468, 72 h
[10] = system: Candida parapsilosis; test: Antimicrobial activity against Candida parapsilosis ATCC 90018 assessed as zone of inhibition at 50 ug per disc after 48 hrs by disc diffusion assay; assay type: functional; conditions: Lodderomyces parapsilosis, ATCC 90018, 48 h; read-out: DIZ
[11] = system: Klebsiella oxytoca; test: Antimicrobial activity against Klebsiella oxytoca ATCC 8724 assessed as zone of inhibition at 50 ug per disc after 24 hrs by disc diffusion assay; assay type: functional; conditions: ATCC 8724, 24 h, read-out: DIZ
[12] = system: Bacillus subtilis; test: Antimicrobial activity against Bacillus subtilis subsp. subtilis ATCC 6051 assessed as zone of inhibition at 50 ug per disc after 24 hrs by disc diffusion assay; assay type: functional; conditions: subsp. subtilis ATCC 6051, 24 h, read-out: DIZ
[13] = system: Staphylococcus aureus; test: Antimicrobial activity against Staphylococcus aureus subsp. aureus ATCC 25923 assessed as zone of inhibition at 50 ug per disc after 24 hrs by disc diffusion assay; assay type: functional; conditions: ATCC 25923, 24 h, read-out: DIZ
[14] = system: Escherichia coli; test: Antimicrobial activity against Escherichia coli ATCC 25922 assessed as zone of inhibition at 50 ug per disc after 24 hrs by disc diffusion assay; assay type: functional; conditions: ATCC 25922, 24 h, read-out: DIZ
[15] = system: Candida albicans; test: Antimicrobial activity against Candida albicans ATCC 10231 assessed as zone of inhibition at 50 ug per disc after 48 hrs by disc diffusion assay; assay type: functional; conditions: ATCC 10231, 48 h, read-out: DIZ
[16] = system: Staphylococcus epidermidis; test: Antimicrobial activity against Staphylococcus epidermidis ATCC 12228 assessed as zone of inhibition at 50 ug per disc after 24 hrs by disc diffusion assay; assay type: functional; conditions: ATCC 12228, 24 h, read-out: DIZ
[17] = system: Pseudomonas aeruginosa; test: Antimicrobial activity against Pseudomonas aeruginosa ATCC 27853 assessed as zone of inhibition at 50 ug per disc after 24 hrs by disc diffusion assay; assay type: functional; conditions: ATCC 27853, 24 h, read-out: DIZ
[18] = system: Candida tropicalis; test: Antimicrobial activity against Candida tropicalis ATCC 13803 assessed as zone of inhibition at 50 ug per disc after 48 hrs by disc diffusion assay; assay type: functional; conditions: ATCC 13803, 48 h, read-out: DIZ
[19] = Growth inhibition of human MRC5 cells at 120 uM after 72 hrs by XTT assay relative to control; assay type: cell-based; conditions: read-out: GI
[20] = Growth inhibition of human MRC5 cells at 117 uM after 72 hrs by XTT assay relative to control; assay type: cell-based; conditions: read-out: GI
[21] = Growth inhibition of human MRC5 cells assessed as metabolic active cells level at 123.3 uM after 72 hrs by XTT assay relative to control; assay type: ADME, cell-based; conditions: read-out: Activity
[22] = system: Plasmodium berghei; test: Antiplasmodial activity against GFP expressing Plasmodium berghei ANKA infected in NMRI mouse assessed as mouse mean survival days at 50 mg/kg, ip administered 4 hrs, 24 hrs, 48 hrs, 72 hrs post infection for 4 days and measured 72 hrs post infection by FACS analysis (reference value: 4 days); assay type: functional
[23] = system: Plasmodium berghei; test: Antiplasmodial activity against GFP expressing Plasmodium berghei ANKA infected in NMRI mouse assessed as reduction in parasitemia at 50 mg/kg, ip administered 4 hrs, 24 hrs, 48 hrs, 72 hrs post infection for 4 days and measured 72 hrs post infection by FACS analysis relative to control; assay type: functional; parameters: scale not given: the % may be the effect or the level left
[24] = Growth inhibition of human MRC5 cells assessed as metabolic active cells level at 147.7 uM after 72 hrs by XTT assay relative to control; assay type: ADME, cell-based; conditions: read-out: Activity
[25] = system: MRC5; test: Cytotoxicity against human MRC5 cells after 72 hrs by XTT assay; assay type: cell-based; conditions: MRC5, 72 h
[26] = Growth inhibition of human MRC5 cells at 134 uM after 72 hrs by XTT assay relative to control; assay type: cell-based; conditions: read-out: GI

SMILES | IC50 [1] [µM] | IC50 ([4]; read-out: IC50) [µM] | IC50 [6] [nM] | selectivity ratio [7] | selectivity ratio [8] | further results
CC1(C)CC(=[N+]2CCCC2)C=CN1Cc1ccc2ccccc2n1.[Cl-] | 16.6 | 125 | 90 | 7.53 | 1390 | Activity [2]: 0%; MSD [3]: 3 days; inhibition at 72 h, 140 µM [5]: 27 to 56%
CC(C)c1ccc(CN2C=CC(=[N+]3CCCC3)CC2(C)C)cc1 | 3.24 | 0.176 | 15 | 0.054 | 11.7 | –
CC1(C)CC(=[N+]2CCCC2)C=CN1Cc1ccc(C(F)(F)F)cc1.[Br-] | 27.2 | 125 | 36 | 4.6 | 3480 | MIC [9]: 64 µg/mL; zone of inhibition at 50 µg/disc [10]: 0 mm; zone of inhibition at 50 µg/disc [11]: 7 mm; zone of inhibition at 50 µg/disc [12]: 10 mm; zone of inhibition at 50 µg/disc [13]: 8 mm; Activity [2]: 54.2%; MSD [3]: 7 days; zone of inhibition at 50 µg/disc [14]: 0 mm; zone of inhibition at 50 µg/disc [15]: 15 mm; zone of inhibition at 50 µg/disc [16]: 18 mm; zone of inhibition at 50 µg/disc [17]: 0 mm; zone of inhibition at 50 µg/disc [18]: 15 mm; inhibition at 72 h, 120 µM [19]: 27 to 56%
CC1(C)CC(=[N+]2CCCC2)C=CN1Cc1cccc2ccccc12 | 0.89 | 0.61 | 63 | 0.69 | 9.68 | –
CC1(C)CC(=[N+]2CCCC2)C=CN1Cc1ccc(Br)cc1.[Br-] | 14.5 | 11.6 | 26 | 0.8 | 445 | inhibition at 72 h, 117 µM [20]: 27 to 56%; Activity [2]: 48.1%; MSD [3]: 4 days
Cc1ccc(CN2C=CC(=[N+]3CCCC3)CC2(C)C)cc1 | 4.24 | 94.9 | 100 | 22.4 | 949 | –
COc1cc(CN2C=CC(=[N+]3CCCC3)CC2(C)C)cc(OC)c1OC | 16.2 | 192 | 1100 | 11.8 | 174 | –
CC1(C)CC(=[N+]2CCCC2)C=CN1Cc1ccccc1Cl | 10.5 | 9.73 | 120 | 0.93 | 81.1 | –
CC1(C)CC(=[N+]2CCCC2)C=CN1Cc1ccccn1 | 100 | > 327 | 2180 | > 3.26 | > 150 | –
CC(C)(C)c1ccc(CN2C=CC(=[N+]3CCCC3)CC2(C)C)cc1 | 0.67 | 0.017 | 40 | 0.025 | 0.43 | viability at 72 h, 123.3 µM [21]: 0 to 10%
CC1(C)CC(=[N+]2CCCC2)C=CN1Cc1ccccc1C#N | 70.9 | > 267 | 1090 | > 3.77 | > 245 | –
CC1(C)CC(=[N+]2CCCC2)C=CN1Cc1ccc(Cl)cc1Cl | 12.8 | 2.99 | 43 | 0.23 | 69.5 | –
CC1(C)CC(=[N+]2CCCC2)C=CN1c1ccccc1 | – | – | 360 | – | – | –
CC1(C)CC(=[N+]2CCCC2)C=CN1Cc1ccccc1 | 61.6 | 12.3 | 130 | 0.2 | 94.8 | –
CC1(C)CC(=[N+]2CCCC2)C=CN1Cc1ccc([N+](=O)[O-])cc1.[Cl-] | 79.8 | > 286 | 100 | > 3.58 | > 2860 | MIC [9]: ≥ 128 µg/mL; zone of inhibition at 50 µg/disc [10]: 0 mm; MSD [22]: 7 days; zone of inhibition at 50 µg/disc [11]: 7 mm; zone of inhibition at 50 µg/disc [12]: 0 mm; zone of inhibition at 50 µg/disc [13]: 0 mm; zone of inhibition at 50 µg/disc [14]: 0 mm; zone of inhibition at 50 µg/disc [15]: 8 mm; Activity [23]: 78.4%; zone of inhibition at 50 µg/disc [16]: 7 mm; zone of inhibition at 50 µg/disc [17]: 0 mm; zone of inhibition at 50 µg/disc [18]: 13 mm
CC1(C)CC(=[N+]2CCCC2)C=CN1Cc1ccc2c(c1)OCO2 | 18.7 | 20.8 | 46 | 1.11 | 451 | –
CC1(C)CC(=[N+]2CCCC2)C=CN1Cc1ccc(F)cc1.[Br-] | 39.2 | > 272 | 110 | > 6.94 | > 2480 | Activity [2]: 31.6%; MSD [3]: 4 days
CC1(C)CC(=[N+]2CCCC2)C=CN1Cc1ccccc1C(F)(F)F | 9.75 | 6.95 | 180 | 0.71 | 38.6 | –
COc1ccc(CN2C=CC(=[N+]3CCCC3)CC2(C)C)cc1 | 22.2 | 168 | 110 | 7.56 | 1530 | –
CC1(C)CC(=[N+]2CCCC2)C=CN1Cc1ccc(Cl)cc1.[Cl-] | 19.7 | 20.1 | 27 | 1.02 | 743 | viability at 72 h, 147.7 µM [24]: 0 to 10%; MIC [9]: 32 µg/mL; zone of inhibition at 50 µg/disc [10]: 0 mm; zone of inhibition at 50 µg/disc [11]: 7 mm; zone of inhibition at 50 µg/disc [12]: 11 mm; zone of inhibition at 50 µg/disc [13]: 14 mm; Activity [2]: 45.8%; MSD [3]: 9 days; zone of inhibition at 50 µg/disc [14]: 0 mm; zone of inhibition at 50 µg/disc [15]: 20 mm; zone of inhibition at 50 µg/disc [16]: 22 mm; zone of inhibition at 50 µg/disc [17]: 0 mm; IC50 [25]: 121 µM; zone of inhibition at 50 µg/disc [18]: 21 mm
CC1(C)CC(=[N+]2CCCC2)C=CN1Cc1ccc(Cl)c(Cl)c1.[Cl-] | 12.4 | 112 | 21 | 9.03 | 5350 | Activity [2]: 39.9%; MSD [3]: 4 days; inhibition at 72 h, 134 µM [26]: 27 to 56%
CCN(CC)CCCC(C)Nc1ccnc2cc(Cl)ccc12 (centres undefined) [CHLOROQUINE] | – | – | – | – | – | Activity [2]: 99.6%; MSD [3]: 20 days
OC(Cn1cncn1)(Cn1cncn1)c1ccc(F)cc1F [FLUCONAZOLE] | – | – | – | – | – | zone of inhibition at 50 µg/disc [10]: 28 mm; zone of inhibition at 50 µg/disc [15]: 24 mm; zone of inhibition at 50 µg/disc [18]: 36 mm
NNC(=O)c1ccncc1 [ISONIAZID] | – | – | – | – | – | MIC [9]: 4 µg/mL (≈ 29.2 µM)
NC[C@H]1O[C@H](O[C@H]2[C@H](O)[C@@H](O[C@H]3O[C@H](CO)[C@@H](O)[C@H](N)[C@H]3O)[C@H](N)C[C@@H]2N)[C@H](O)[C@@H](O)[C@@H]1O [KANAMYCIN] | – | – | – | – | – | zone of inhibition at 50 µg/disc [12]: 13 mm; zone of inhibition at 50 µg/disc [13]: 17 mm; zone of inhibition at 50 µg/disc [14]: 14 mm
CC1(C)S[C@@H]2[C@H](NC(=O)Cc3ccccc3)C(=O)N2[C@H]1C(=O)O [PENICILLIN G] | – | – | – | – | – | zone of inhibition at 50 µg/disc [11]: 8 mm
COc1cc([C@@H]2c3cc4c(cc3[C@H](O)[C@H]3COC(=O)[C@H]23)OCO4)cc(OC)c1OC [PODOFILOX] | – | – | – | – | – | IC50 [4]: 0.012 µM
CN(C)[C@@H]1C(O)=C(C(N)=O)C(=O)[C@@]2(O)C(O)=C3C(=O)c4c(O)cccc4[C@@](C)(O)[C@H]3C[C@@H]12 [TETRACYCLINE] | – | – | – | – | – | zone of inhibition at 50 µg/disc [16]: 13 mm
